Results as given in paper PMC6269433, “Biocatalytic production of adiponitrile and related aliphatic linear α,ω-dinitriles” (Nature Communications, 2018).

Experiments:
Assay type in all cases: cell-based
[1] = target: T1, OxdA (Pseudomonas chlororaphis, UniProt Q7WSJ4); assay: whole-cell dehydration to adiponitrile, GC; details: E. coli resting cells, 50 mM potassium phosphate pH 7.0, 30 °C, argon, with or without 20% DMSO; activity only per bio wet weight
T1 construct: recombinant in E. coli, resting whole cells; plasmid details only in supplement; ferrous heme enzyme
T1 sequence (Q7WSJ4 1-352): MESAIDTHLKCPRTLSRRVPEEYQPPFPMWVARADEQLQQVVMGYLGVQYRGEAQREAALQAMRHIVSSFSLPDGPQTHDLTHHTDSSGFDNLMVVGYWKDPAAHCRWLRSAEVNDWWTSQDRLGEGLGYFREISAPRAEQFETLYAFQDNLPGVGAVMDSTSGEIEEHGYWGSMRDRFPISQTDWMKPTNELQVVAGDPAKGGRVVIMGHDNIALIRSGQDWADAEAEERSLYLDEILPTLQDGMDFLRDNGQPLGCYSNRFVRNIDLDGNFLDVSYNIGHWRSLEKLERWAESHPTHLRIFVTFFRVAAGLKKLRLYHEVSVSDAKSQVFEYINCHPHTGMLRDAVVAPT

[2] = target: T2, OxdB (Bacillus sp. OxB-1, UniProt P82604); assay: whole-cell dehydration to adiponitrile, GC; details: E. coli resting cells, 50 mM potassium phosphate pH 7.0, 30 °C, argon, with or without 20% DMSO; activity only per bio wet weight
T2 construct: gene oxd; recombinant in E. coli, resting whole cells; plasmid details only in supplement; ferrous heme enzyme
T2 sequence (P82604 2-351): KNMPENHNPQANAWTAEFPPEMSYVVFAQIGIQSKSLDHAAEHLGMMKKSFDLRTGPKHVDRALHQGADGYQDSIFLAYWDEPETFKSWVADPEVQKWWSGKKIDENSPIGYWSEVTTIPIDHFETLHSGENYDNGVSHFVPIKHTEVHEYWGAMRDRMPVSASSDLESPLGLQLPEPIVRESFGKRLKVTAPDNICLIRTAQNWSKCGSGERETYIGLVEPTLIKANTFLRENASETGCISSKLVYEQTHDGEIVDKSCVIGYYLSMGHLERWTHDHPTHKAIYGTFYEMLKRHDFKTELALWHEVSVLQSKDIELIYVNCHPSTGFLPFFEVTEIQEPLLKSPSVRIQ

[3] = target: T2, OxdB; assay: whole-cell dehydration to the dinitrile, analytical scale; details: E. coli resting cells; substrate 3.0-75 mM range; activity only per bio wet weight
[4] = target: T1, OxdA; assay: as above; details: E. coli resting cells; substrate 3.0-75 mM range; activity only per bio wet weight

ON=CCCCCC=NO [1d, adipaldehyde dioxime]
whole-cell dehydration to adiponitrile, GC [1]: the C6-C10-dialdoximes (1d-h) were converted by both Oxds completely with excellent efficiency
whole-cell dehydration to adiponitrile, GC [2]: the C6-C10-dialdoximes (1d-h) were converted by both Oxds completely with excellent efficiency

ON=CCCCCCCC=NO [1f, C8-dialdoxime]
whole-cell dehydration to the dinitrile, analytical scale [3]: the C6-C10-dialdoximes (1d-h) were converted by both Oxds completely with excellent efficiency
whole-cell dehydration to the dinitrile, analytical scale [4]: the C6-C10-dialdoximes (1d-h) were converted by both Oxds completely with excellent efficiency
